From US6875760B2 (Novo Nordisk A/S, priority 1999, dated 2005)

What follows are compounds tested against T1, human glucagon receptor (Homo sapiens, UniProt P47871) (assay: Glucagon Binding Assay (III)). Conditions: BHK cell membranes, WGA SPA beads, 125I-glucagon; read-out: Glu Bd Assay (III) IC50.
T1 construct: expressed in transfected cells; host or cells: BHK (baby hamster kidney) cells
Summary of the method: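 Non-specific binding was set with 500 nM glucagon in this SPA-type binding assay using WGA beads. The receptor source was a membrane preparation, kept on ice or at 4 °C, from BHK cells transfected with the human receptor. Scintillation counts were taken after 4 hours of shaking and 8–48 hours of settling.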

T1 sequence (P47871 26-477): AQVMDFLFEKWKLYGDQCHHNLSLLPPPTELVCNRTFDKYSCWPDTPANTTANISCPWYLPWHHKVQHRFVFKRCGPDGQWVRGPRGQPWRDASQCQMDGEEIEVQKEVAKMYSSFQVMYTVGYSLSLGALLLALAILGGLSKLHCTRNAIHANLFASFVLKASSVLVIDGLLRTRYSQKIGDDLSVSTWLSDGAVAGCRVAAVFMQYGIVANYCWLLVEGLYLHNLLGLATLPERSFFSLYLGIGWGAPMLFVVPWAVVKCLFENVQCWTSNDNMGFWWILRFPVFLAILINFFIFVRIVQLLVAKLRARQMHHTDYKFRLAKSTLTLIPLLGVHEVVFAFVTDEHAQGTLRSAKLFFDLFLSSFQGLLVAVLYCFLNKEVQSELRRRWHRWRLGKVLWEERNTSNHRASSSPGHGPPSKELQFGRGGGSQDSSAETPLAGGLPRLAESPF

Point of comparison: `CCCCC(CC)CN(Cc1ccc(C(=O)NCCC(=O)O)cc1)C(=O)Nc1cccc(C(=O)OCC)c1` (stereo not shown) [Example 40, 3-[3-[4-(2-Carboxyethylcarbamoyl)benzyl]-3-(2-ethylhexyl)ureido]benzoic acid ethyl ester], IC50 821 nM. Against it:
- CNC(=O)c1cccc(NC(=O)N(Cc2ccc(C(=O)Nc3nn[nH]n3)cc2)c2ccc(C(C)(C)C)cc2)c1 [Example 458, N-Methyl-3-{3-(4-tert-butylphenyl)-3-[4-(2H-tetrazol-5-ylcarbamoyl)benzyl]ureido}benzamide] — 2.2-fold higher, 1810 nM
- CC(C)(C)c1ccc(N(Cc2ccc(C(=O)Nc3nn[nH]n3)cc2)C(=O)Nc2cccc(C(=O)Oc3c(F)c(F)c(F)c(F)c3F)c2)cc1 [Example 457, 3-{3-(4-tert-Butylphenyl)-3-[4-(2H-tetrazol-5-ylcarbamoyl)benzyl]ureido}benzoic acid pentafluorophenyl ester] — within 1.5-fold, 841 nM
- O=C(Nc1nn[nH]n1)c1ccc(CN(C(=O)Nc2cccc([N+](=O)[O-])c2)c2ccc(OC(F)(F)F)cc2)cc1 [Example 285] — 5.4-fold lower, 151 nM
- O=C(Nc1nn[nH]n1)c1ccc(CN(C(=O)Nc2ccc3c(c2)S(=O)(=O)CC3)c2ccc(C3CCCCC3)cc2)cc1 [Example 258, 4-[1-(4-Cyclohexylphenyl)-3-(1,1-dioxo-2,3-dihydro-1H-1-benzo[b]thiophen-6-yl)ureidomethyl]-N-(2H-tetrazol-5-yl)benzamide] — within 1.5-fold, 773 nM
- CC(C)(C)C1CCC(N(Cc2ccc(C(=O)NCCC(=O)O)cc2)C(=O)Cc2ccc(OC(F)(F)F)cc2)CC1 (stereo not shown) [Example 506, 3-[4-({(4-tert-Butylcyclohexyl)-[2-(4-trifluoromethoxyphenyl)acetyl]amino}methyl)benzoylamino]propionic acid] — 7.6-fold lower, 108 nM
- O=C(Nc1nn[nH]n1)c1ccc(CN(C(=O)Nc2cc(C(F)(F)F)cc(C(F)(F)F)c2)c2ccc(C3CCCCC3)cc2)cc1 [Example 271, 4-[3-(3,5-Bis-trifluoromethylphenyl)-1-(4-cyclohexylphenyl)ureidomethyl]-N-(2H-tetrazol-5-yl)benzamide] — 91-fold lower, 9 nM
- CC(C)(C)C1CCC(N(Cc2ccc(C(=O)NCCC(=O)O)cc2)C(=O)Nc2ccc(Cl)cc2)CC1 (stereo not shown) [Example 34, 3-{4-[1-(4-tert-Butylcyclohexyl)-3-(4-chlorophenyl)ureidomethyl]benzoyl}aminopropionic acid] — 1.8-fold lower, 462 nM
- O=C(O)CCNC(=O)c1ccc(CN(C(=O)Nc2ccc(OC(F)(F)F)cc2)C2CCN(C(=O)C3CC3)CC2)cc1 [Example 381, 3-{4-[1-(1-Cyclopropanecarbonylpiperidin-4-yl)-3-(4-trifluoromethoxyphenyl)ureidomethyl]benzoylamino}propionic acid] — 2.4-fold higher, 1980 nM
- O=C(Nc1nn[nH]n1)c1ccc(CN(C(=O)Nc2cc(Cl)sc2Cl)c2ccc(C3CCCCC3)cc2)cc1 [Example 335, 4-[1-(4-Cyclohexylphenyl)-3-(2,5-dichlorothiophen-3-yl)ureidomethyl]-N-(2H-tetrazol-5-yl)benzamide] — within 1.5-fold, 1090 nM
- CN(c1ccccc1)S(=O)(=O)c1cccc(NC(=O)N(Cc2ccc(C(=O)Nc3nn[nH]n3)cc2)c2ccc(C3CCCCC3)cc2)c1 [Example 266, 4-{1-(4-Cyclohexylphenyl)-3-[3-(methylphenylsulfamoyl)phenyl]ureidomethyl}-N-(2H-tetrazol-5-yl)benzamide] — 55-fold lower, 15 nM
- O=C(O)CCNC(=O)c1ccc(CN(C(=O)c2cc3ccccc3s2)C2CCC3(CCCCC3)CC2)cc1 [Example 619, 3-(4-{[(Benzo[b]thiophene-2-carbonyl)spiro[5.5]undec-3-yl-amino]methyl}benzoylamino)propionic acid] — 1.7-fold lower, 479 nM
- CC(C)c1ccc(NC(=O)N(CCc2ccc(Cl)cc2)Cc2ccc(C(=O)NCCC(=O)O)cc2)cc1 [Example 52, 3-{4-[1-[2-(4-Chlorophenyl)ethyl]-3-(4-isopropylphenyl)ureidomethyl]benzoylamino}propionic acid] — 2.1-fold lower, 383 nM
- CC(C)(C)c1ccc(N(Cc2ccc(C(=O)Nc3nn[nH]n3)cc2)C(=O)Nc2cc(Br)cc(C(F)(F)F)c2)cc1 [Example 263, 4-[3-(3-Bromo-5-trifluoromethylphenyl)-1-(4-tert-butylphenyl)ureidomethyl]-N-(2H-tetrazol-5-yl)benzamide] — 51-fold lower, 16 nM
- CC(C)c1ccc(NC(=O)N(Cc2ccc(C(=O)NCCC(=O)O)cc2)C2CCC(C(C)(C)C)CC2)cc1 (stereo not shown) [Example 29, 3-{4-[1-(4-tert-Butylcyclohexyl)-3-(4-isopropylphenyl)ureidomethyl]benzoyl}aminopropionic acid] — 5.5-fold lower, 149 nM
- CC(C)(C)c1ccc(N(Cc2ccc(C(=O)Nc3nn[nH]n3)cc2)C(=O)Nc2cccc(S(=O)(=O)N3CCCCC3)c2)cc1 [Example 277] — 2-fold lower, 411 nM
- CC(C)(C)C1CCC(N(Cc2ccc(C(=O)N(CCC(=O)O)CC3CC3)cc2)C(=O)Nc2ccc(OC(F)(F)F)cc2)CC1 (stereo not shown) [Example 90, 3-({4-[1-(4-tert-Butylcyclohexyl)-3-(4-trifluoromethoxyphenyl)ureidomethyl]benzoyl}cyclopropylmethyl)aminopropionic acid] — 5.1-fold higher, 4200 nM
- O=C(O)CCNC(=O)c1ccc(CN(C(=O)Nc2ccc(OC(F)(F)F)cc2)c2ccc(OC(F)(F)F)cc2)cc1 [Example 438, 3-{4-[1,3-Bis(4-trifluoromethoxyphenyl)ureidomethyl]benzoylamino}propionic acid] — 2.9-fold lower, 288 nM
- CC(C)Oc1ccc(C(=O)N(Cc2ccc(C(=O)Nc3nn[nH]n3)cc2)C2CCC(C(C)(C)C)CC2)cc1 (stereo not shown) [Example 513, 4-{[(4-tert-Butylcyclohexyl)-(4-isopropoxybenzoyl)amino]methyl}-N-(2H-tetrazol-5-yl)benzamide] — 5.7-fold lower, 144 nM
- CC(c1ccc(C(=O)Nc2nn[nH]n2)cc1)N(C(=O)Nc1ccc(OC(F)(F)F)cc1)c1ccc(C(C)(C)C)cc1 (stereo not shown) [Example 646, 4-{1-[1-(4-tert-Butylphenyl)-3-(4-trifluoromethoxyphenyl)ureido]ethyl}-N-(2H-tetrazol-5-yl)benzamide] — 37-fold lower, 22 nM
- CCOC(=O)c1ccc2nc(NC(=O)N(Cc3ccc(C(=O)Nc4nn[nH]n4)cc3)c3ccc(C4CCCCC4)cc3)sc2c1 [Example 343, 2-{3-(4-Cyclohexylphenyl)-3-[4-(2H-tetrazol-5-ylcarbamoyl)benzyl]ureido}benzothiazole-6-carboxylic acid ethyl ester] — 8.3-fold lower, 99 nM
- CCCCc1ccc(N(Cc2ccc(C(=O)Nc3nn[nH]n3)cc2)C(=O)Nc2ccccc2)cc1 [Example 280, 4-[1-(4-Butylphenyl)-3-phenylureidomethyl]-N-(2H-tetrazol-5-yl)benzamide] — 3.3-fold lower, 252 nM
- CCS(=O)(=O)c1cccc(NC(=O)N(Cc2ccc(C(=O)Nc3nn[nH]n3)cc2)c2ccc(OC(F)(F)F)cc2)c1 [Example 452, 4-[3-(3-Ethylsulfonylphenyl)-1-(4-trifluoromethoxyphenyl)ureidomethyl]-N-(2H-tetrazol-5-yl)benzamide] — 1.7-fold higher, 1410 nM
- CC(C)(C)C1CCC(N(Cc2ccc(C(=O)Nc3nn[nH]n3)cc2)C(=O)CCC(=O)c2ccccc2)CC1 (stereo not shown) [Example 541, 4-({(4-tert-Butylcyclohexyl)-(4-oxo-4-phenylbutyryl)amino]methyl}-N-(2H-tetrazol-5-yl)benzamide] — within 1.5-fold, 805 nM
- CS(=O)(=O)c1ccc(NC(=O)N(Cc2ccc(C(=O)Nc3nn[nH]n3)cc2)c2ccc(OC(F)(F)F)cc2)cc1 [Example 451, 4-[3-(4-Methylsulfonylphenyl)-1-(4-trifluoromethoxyphenyl)ureidomethyl]-N-(2H-tetrazol-5-yl)benzamide] — 4.2-fold higher, 3450 nM
